*1 amine or outer side, *2 acyl side, *3 side chain or, on linkers, in order; H or OH if unused. Where a SMILES comes first, the peptide text is derived from it. Bridges are numbered along the chain shown (N, C = ends). [ ]: non-standard residue; d: D form. The star is where a group is joined. ξ: configuration not given here. X1 = CC(C)=CCCC(C)C1CCC2(C)C3=C(CCC12C)C1(C)CCC(OC(=O)*)C(C)(C)C1CC3; ξOrn(4,5-diOH) = O=C(C(CC(O)C(O)N[*:3])N[*:1])[*:2]; ξhTyr(βOH) = NC(C(=O)O)C(O)Cc1ccc(O)cc1; ξPro(3ξ-OH,4ξ-Me) = CC1CNC(C(=O)O)C1O; Hyp = O=C(O)[CH]1C[CH](O)CN1
Biological target: T1, Glucan Synthase of Candida Albicans (Candida albicans, UniProt O13428)
T1 construct: 22.5 μg of membrane proteins are incubated in a mixture of 2 mM of; endogenous in cells
T1 sequence (O13428 1-1897): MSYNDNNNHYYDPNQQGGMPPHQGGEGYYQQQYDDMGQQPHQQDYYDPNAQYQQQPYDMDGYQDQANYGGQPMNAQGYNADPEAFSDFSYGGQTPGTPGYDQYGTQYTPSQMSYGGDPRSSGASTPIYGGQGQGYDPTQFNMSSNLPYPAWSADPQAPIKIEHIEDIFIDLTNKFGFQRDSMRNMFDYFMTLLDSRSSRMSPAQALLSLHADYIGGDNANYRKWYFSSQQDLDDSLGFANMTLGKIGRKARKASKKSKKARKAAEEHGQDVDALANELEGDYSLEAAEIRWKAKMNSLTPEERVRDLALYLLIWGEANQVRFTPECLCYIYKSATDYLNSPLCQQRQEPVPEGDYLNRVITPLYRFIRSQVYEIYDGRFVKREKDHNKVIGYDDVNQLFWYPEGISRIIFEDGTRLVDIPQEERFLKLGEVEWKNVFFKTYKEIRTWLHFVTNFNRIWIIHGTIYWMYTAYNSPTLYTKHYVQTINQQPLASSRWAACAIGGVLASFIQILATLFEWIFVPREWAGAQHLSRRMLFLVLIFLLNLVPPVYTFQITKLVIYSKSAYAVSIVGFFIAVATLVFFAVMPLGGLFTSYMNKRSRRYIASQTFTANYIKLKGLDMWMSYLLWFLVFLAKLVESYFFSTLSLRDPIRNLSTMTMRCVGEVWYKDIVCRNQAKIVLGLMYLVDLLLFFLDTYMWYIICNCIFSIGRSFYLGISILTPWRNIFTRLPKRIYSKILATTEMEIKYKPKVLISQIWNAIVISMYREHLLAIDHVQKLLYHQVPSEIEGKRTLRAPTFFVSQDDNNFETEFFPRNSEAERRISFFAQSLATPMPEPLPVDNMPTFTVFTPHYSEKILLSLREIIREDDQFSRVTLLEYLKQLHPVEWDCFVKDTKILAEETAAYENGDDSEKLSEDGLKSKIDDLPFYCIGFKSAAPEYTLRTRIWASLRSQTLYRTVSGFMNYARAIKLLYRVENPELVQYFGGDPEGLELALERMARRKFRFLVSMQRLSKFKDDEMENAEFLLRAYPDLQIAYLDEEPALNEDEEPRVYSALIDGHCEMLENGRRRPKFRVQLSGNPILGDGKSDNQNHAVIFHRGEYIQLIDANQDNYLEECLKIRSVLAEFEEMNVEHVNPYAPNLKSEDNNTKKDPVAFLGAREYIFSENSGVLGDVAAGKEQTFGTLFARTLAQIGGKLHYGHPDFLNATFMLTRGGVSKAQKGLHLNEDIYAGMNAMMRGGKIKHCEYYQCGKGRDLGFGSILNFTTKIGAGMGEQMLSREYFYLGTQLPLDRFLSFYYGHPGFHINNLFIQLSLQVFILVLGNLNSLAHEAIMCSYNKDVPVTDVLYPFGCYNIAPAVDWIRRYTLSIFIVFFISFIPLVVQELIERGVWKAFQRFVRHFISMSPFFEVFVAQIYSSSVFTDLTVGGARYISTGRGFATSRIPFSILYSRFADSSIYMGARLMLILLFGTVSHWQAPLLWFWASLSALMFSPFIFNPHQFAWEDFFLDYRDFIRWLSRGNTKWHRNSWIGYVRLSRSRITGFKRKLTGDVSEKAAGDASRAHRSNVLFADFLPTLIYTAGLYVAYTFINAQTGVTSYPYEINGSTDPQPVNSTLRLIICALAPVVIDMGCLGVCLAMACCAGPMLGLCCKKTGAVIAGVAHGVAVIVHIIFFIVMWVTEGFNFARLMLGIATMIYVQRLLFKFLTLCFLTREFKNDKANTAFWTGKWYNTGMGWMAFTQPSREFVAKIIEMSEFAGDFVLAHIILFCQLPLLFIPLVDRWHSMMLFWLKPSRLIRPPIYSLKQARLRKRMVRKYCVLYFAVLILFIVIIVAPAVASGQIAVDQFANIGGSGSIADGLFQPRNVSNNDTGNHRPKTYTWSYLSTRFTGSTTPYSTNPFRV
T1 sequence (O42825 1-195 partner limits assumed): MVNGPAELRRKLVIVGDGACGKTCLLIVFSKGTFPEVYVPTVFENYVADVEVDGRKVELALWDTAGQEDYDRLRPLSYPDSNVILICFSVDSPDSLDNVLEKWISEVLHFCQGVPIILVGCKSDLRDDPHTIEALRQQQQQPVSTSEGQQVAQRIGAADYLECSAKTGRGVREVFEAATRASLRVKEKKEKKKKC
Assay: Inhibition of the glucan synthase of Candida albicans (14C-UDP glucose incorporation, membrane preparation)
Assay type: biochemical
Conditions: Candida albicans membranes, 25° C., 1 hour; result in words
Procedure: A—Inhibition of the Glucan Synthase of Candida Albicans.
Candida albicans membranes are purified according to the process described by Tang et al Antimicrob. Agents Chemother 35, 99-103, 1991. 22.5 μg of membrane proteins are incubated in a mixture of 2 mM of ^14C-UDP glucose (specific activity=0.34 mCi./mmol, 50 μg of a α-amylase, 1 mM of dithiotreitol (DTT), 1 mM EDTA, 100 mM NaF, 7 μM of GTP-γ-S, 1M of sucrose and 50 mM of Tris-HCL (pH 7.8) in a volume of 100 μl. The medium is incubated at 25° C. for 1 hour and the reaction is terminated by adding TCA at a final concentration of 5%. The reaction mixture is transferred onto a pre-moistened glass fibre filter. The filter is washed, dried and its radioactivity is counted. Mulundocandin is used as a positive control. Control of the vehicle is carried out with the same quantity of 1% DMSO.

| Molecule | Inhibition of the Glucan Synthase of Candida Albicans |
| --- | --- |
| 1-[(4R,5R)-4,5-dihydroxy-N2-[[[(3β, 22E)-ergosta-5,7,22-trien-3-yl]oxy]carbonyl]-L-ornithine]-mulundocandin [Example 3] | good activity |
| CC(C)=CCCC(C)C1CCC2(C)C3=C(CCC12C)C1(C)CCC(OC(=O)NC2CC(O)C(O)NC(=O)C(CO)NC(=O)C4C(O)C(C)CN4C(=O)C(C(O)Cc4ccc(O)cc4)NC(=O)C4CC(O)CN4C(=O)C(C(C)O)NC2=O)C(C)(C)C1CC3 [Example 2, 1-[(4R,5R)-4,5-dihydroxy-N2-[[[(3β)-lanosta-8,24-dien-3-yl]oxy]carbonyl]-L-ornithine]-deoxymulundocandin] (X1-[ξOrn(4,5-diOH)]T[Hyp][ξhTyr(βOH)][ξPro(3ξ-OH,4ξ-Me)]S; lactam 1-C; configuration not given here) | good activity |
